The values that follow come from ChEMBL document CHEMBL1201862, “PubChem BioAssay data set” (2004).

Test systems include HOP-62; Malme-3M; NCI/ADR-RES; M14; TK-10; SN12C; ACHN; NCI-H23; EKVX; SR; HCT-116; NCI-H522; HT-29; SNB-75; SK-MEL-2; Hs-578T; K562; MDA-MB-435; CCRF-CEM.
What all share (assay): NCI anticancer screen, dose series, 48 h

The structures appear in SMILES notation.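 These data come from cells grown in 96-well plates and exposed to compound for 48 hours at five concentrations. The concentration for 50% growth inhibition is given as GI50.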 Calls of active or inactive are those of the source. No stated cut-off is given here; in the data, active = GI50 up to about 1.1 µM and inactive = higher.

As for `NC1CC=C(COC(=O)C(O)(c2ccccc2)C2CC2)CC1` (stereo unspecified), the GI50 in the assay on HOP-62, in the assay on Malme-3M, in the assay with NCI/ADR-RES, in the assay with M14, in the assay with TK-10 and in the assay with SN12C was > 100 µM (inactive) in each case. Besides, the GI50 in the assay on ACHN, in the assay with NCI-H23, in the assay with EKVX, with SR, in the assay with HCT-116 and in the assay on NCI-H522 was > 100 µM (inactive) each time. Besides, the GI50 in the assay with HT-29 and in the assay with SNB-75 was > 100 µM (inactive) throughout.

As for `O=C1CC2C(=O)c3ccccc3CC2c2ccccc21` (stereo unspecified), the GI50 with HOP-62 is > 100 µM (inactive); in the assay on Malme-3M it was 39 µM (inactive); in the assay with SK-MEL-2 it was 87.1 µM (inactive); with Hs-578T, > 100 µM (inactive); in the assay with M14, 69.5 µM (inactive); with TK-10, 87.9 µM (inactive). Also, the GI50 is 21.3 µM (inactive) with K562; 55.3 µM (inactive) in the assay with SN12C; 30.7 µM (inactive) with ACHN; 46.1 µM (inactive) in the assay with EKVX; 13.8 µM (inactive) with SR; 24.1 µM (inactive) with MDA-MB-435. Moreover, the GI50 in the assay with HCT-116 is 38.6 µM (inactive); in the assay on NCI-H522, 57.4 µM (inactive); in the assay on HT-29, 44.9 µM (inactive); in the assay on SNB-75, 6.49 µM (inactive).

With `Oc1ccc(-c2nc3ccc(F)cc3s2)cc1`, the GI50 was 18.5 µM (inactive) with Malme-3M; 19.1 µM (inactive) in the assay with SK-MEL-2; 21.1 µM (inactive) with NCI/ADR-RES; 20.4 µM (inactive) in the assay with M14; 16 µM (inactive) in the assay with TK-10; 29.4 µM (inactive) with K562. The GI50 was 18.4 µM (inactive) in the assay with SN12C; 19.1 µM (inactive) in the assay on ACHN; 19.7 µM (inactive) with NCI-H23; 10.8 µM (inactive) in the assay on EKVX; 26.1 µM (inactive) in the assay with SR; 20.4 µM (inactive) in the assay on MDA-MB-435. For the same compound, the GI50 in the assay on HCT-116 was 18.2 µM (inactive); in the assay with NCI-H522, 13.2 µM (inactive); with HT-29, 15 µM (inactive).

`Cc1cc(S(=O)(=O)[N-]C(=C(C#N)C#N)[n+]2ccc(N(C)C)cc2)c(SCC(=O)O)cc1Cl`: the GI50 in the assay with HOP-62 is > 100 µM (inactive); in the assay with Malme-3M it was 22.6 µM (inactive); with SK-MEL-2, > 100 µM (inactive); in the assay with Hs-578T, > 100 µM (inactive); in the assay with CCRF-CEM, > 100 µM (inactive); in the assay on NCI/ADR-RES, > 100 µM (inactive). The GI50 in the assay with M14, in the assay on TK-10, in the assay on K562, in the assay on SN12C, with ACHN and in the assay on NCI-H23 was > 100 µM (inactive) each time. The GI50 in the assay with EKVX was > 100 µM (inactive); in the assay with MDA-MB-435 it was > 100 µM (inactive); in the assay on HCT-116, > 100 µM (inactive); in the assay on NCI-H522 it was 45.8 µM (inactive); in the assay with HT-29, > 100 µM (inactive).

On to `C=C(C)C(=O)OC1CC2(C)OC(=CC2=O)C(C)CC2OC(=O)C(=C)C12` (stereo unspecified), for which the GI50 was 19.2 µM (inactive) with HOP-62; 3.44 µM (inactive) with Malme-3M; 14.3 µM (inactive) with SK-MEL-2; 0.839 µM (active) in the assay with CCRF-CEM; 8.95 µM (inactive) with NCI/ADR-RES; 5.48 µM (inactive) with M14. Further, the GI50 in the assay with TK-10 is 7.41 µM (inactive); in the assay on K562, 0.656 µM (active); in the assay with SN12C, 5.85 µM (inactive); in the assay on ACHN, 2.8 µM (inactive); in the assay with NCI-H23, 8.89 µM (inactive); with EKVX it was 7.76 µM (inactive). Besides, the GI50 with SR is 1.63 µM (inactive); in the assay with MDA-MB-435, 4.13 µM (inactive); in the assay on HCT-116, 1.75 µM (inactive); in the assay with NCI-H522 it was 0.832 µM (active); with HT-29, 3.92 µM (inactive); in the assay with SNB-75, 20.2 µM (inactive).

Turning to `On1c(-c2ccccc2)nc2ccccc2c1=S`, the GI50 in the assay with HOP-62 is 7.35 µM (inactive); in the assay on Malme-3M, 5 µM (inactive); with SK-MEL-2 it was 8.75 µM (inactive); in the assay on Hs-578T it was 16.5 µM (inactive); with CCRF-CEM, 1.55 µM (inactive); in the assay with NCI/ADR-RES it was 4.2 µM (inactive). In addition, the GI50 with M14 was 2.91 µM (inactive); in the assay on TK-10, > 100 µM (inactive); in the assay on K562, 3.91 µM (inactive); with SN12C, 7.13 µM (inactive); in the assay on ACHN it was 5.21 µM (inactive); with NCI-H23, 3.43 µM (inactive). In addition, the GI50 with EKVX was 10.3 µM (inactive); with MDA-MB-435, 7.43 µM (inactive); in the assay on HCT-116, 2.7 µM (inactive); with HT-29, 6.64 µM (inactive); in the assay with SNB-75, 19.3 µM (inactive).

As for `Cc1ccc(C2=C(c3ccccc3)C(Br)(c3ccccc3)C(c3ccccc3)=C2c2ccc(C)cc2)cc1`, the GI50 with HOP-62, in the assay with Malme-3M, in the assay on SK-MEL-2, in the assay with CCRF-CEM, with M14 and with TK-10 was > 100 µM (inactive) in each case. In addition, the GI50 in the assay with K562, with SN12C, in the assay with ACHN, in the assay with NCI-H23, in the assay with EKVX and with HCT-116 was > 100 µM (inactive) in each case. The GI50 in the assay with NCI-H522, in the assay on HT-29 and with SNB-75 was > 100 µM (inactive) each time.

For `Cc1ccc(S(=O)(=O)N2CCCSCCN(S(=O)(=O)c3ccc(C)cc3)CCCSCC2)cc1`, the GI50 in the assay with HOP-62, in the assay on SK-MEL-2, in the assay with Hs-578T, in the assay with NCI/ADR-RES, in the assay with M14 and in the assay with TK-10 was > 100 µM (inactive) in each case. Further, the GI50 in the assay on K562, in the assay with SN12C, in the assay on ACHN, in the assay on NCI-H23, in the assay on EKVX and in the assay with MDA-MB-435 was > 100 µM (inactive) each time. The GI50 in the assay with HCT-116, with HT-29 and with SNB-75 was > 100 µM (inactive) in each case.

Turning to `CCC(C)(O)c1cnc(CC(C)C)c(=O)n1O` (stereo unspecified), the GI50 in the assay with HOP-62 was 42.9 µM (inactive); with SK-MEL-2, 57.3 µM (inactive); in the assay on Hs-578T, 80.7 µM (inactive); in the assay on CCRF-CEM, 29.2 µM (inactive); in the assay on TK-10, 97.7 µM (inactive); in the assay with K562, 18.5 µM (inactive). The GI50 is 35.1 µM (inactive) in the assay with SN12C; 59.7 µM (inactive) in the assay on ACHN; 78.2 µM (inactive) in the assay with NCI-H23; 49.4 µM (inactive) in the assay on EKVX; 17.2 µM (inactive) in the assay on SR; 57.7 µM (inactive) in the assay with MDA-MB-435. Moreover, the GI50 in the assay with HCT-116 is 44.9 µM (inactive); in the assay with HT-29 it was 38.5 µM (inactive); in the assay with SNB-75, 31.6 µM (inactive).

On to `COc1ccc2c(C)cc(C)nc2n1`, for which the GI50 in the assay on HOP-62, with Malme-3M, with SK-MEL-2, in the assay on CCRF-CEM, in the assay with NCI/ADR-RES and in the assay with M14 was > 100 µM (inactive) each time. For the same compound, the GI50 in the assay with TK-10, with K562, with SN12C, in the assay with ACHN, in the assay on NCI-H23 and in the assay with EKVX was > 100 µM (inactive) throughout. The GI50 in the assay with SR, in the assay with MDA-MB-435, with HCT-116, in the assay on NCI-H522, in the assay with HT-29 and in the assay with SNB-75 was > 100 µM (inactive) throughout.

As to `COC(=O)c1c(C(=O)OC)c2ccc(-c3ccc(Cl)cc3)nn2c1C(=O)c1ccc([N+](=O)[O-])cc1`, the GI50 in the assay on HOP-62 is > 100 µM (inactive); in the assay on SK-MEL-2 it was 34.8 µM (inactive); with CCRF-CEM, 17.1 µM (inactive); with NCI/ADR-RES, > 100 µM (inactive); in the assay on M14, 40.6 µM (inactive); in the assay on TK-10, 28.1 µM (inactive). For the same compound, the GI50 in the assay on K562 is 14.2 µM (inactive); with SN12C, > 100 µM (inactive); with ACHN, 43 µM (inactive); with NCI-H23, > 100 µM (inactive); with EKVX, 27.4 µM (inactive); in the assay with MDA-MB-435 it was 50.1 µM (inactive). Besides, the values for the GI50 in the assay with HCT-116, with NCI-H522 and in the assay with HT-29 were 27.2 µM (inactive), 17.4 µM (inactive) and 37.2 µM (inactive), respectively.

Turning to `Cc1ccsc1/C=N/Nc1ccc2ccccc2n1`, the GI50 was 19.8 µM (inactive) with HOP-62; 25.2 µM (inactive) with SK-MEL-2; 37.7 µM (inactive) in the assay with Hs-578T; 27.5 µM (inactive) in the assay on CCRF-CEM; 30.5 µM (inactive) in the assay on NCI/ADR-RES; 29.1 µM (inactive) with M14. Besides, the GI50 in the assay with TK-10 is 19.9 µM (inactive); in the assay with K562, 59.8 µM (inactive); in the assay on SN12C it was > 100 µM (inactive); with ACHN, 15.1 µM (inactive); in the assay on NCI-H23, 51.1 µM (inactive); in the assay with EKVX it was 20.3 µM (inactive). Further, the GI50 with MDA-MB-435 was 56.5 µM (inactive); in the assay with HCT-116, 28.1 µM (inactive); in the assay on HT-29, 12.5 µM (inactive); in the assay with SNB-75, 32.9 µM (inactive).
